A word on the melting point: it is the temperature, or range, at which the solid turns liquid.

For the compound `COCCCC(=O)N[C@H]1CC[C@H](CCN2CCN(c3ccc(Cl)c(Cl)c3)CC2)CC1` [Example 502, N-(4-{2-[4-(3,4-Dichlorophenyl)piperazin-1-yl]ethyl}cyclohexyl)-4-methoxybutanamide], the melting point turned out to be 175 °C.

`CCOCC(=O)N[C@H]1CC[C@H](CCN2CCN(c3cccc(C(F)(F)F)c3)CC2)CC1.Cl` returned a melting point of 184 °C.

In turn, `N#CCCCC(=O)N[C@H]1CC[C@H](CCN2CCN(c3cc(F)cc(F)c3)CC2)CC1` [Example 254, 4-Cyano-N-(4-{2-[4-(3,5-difluorophenyl)piperazin-1-yl]ethyl}cyclohexyl)butanamide] gave a melting point of 165 °C.

As to `CCOCC(=O)N[C@H]1CC[C@H](CCN2CCC(c3cccc(C(F)(F)F)c3)CC2)CC1` [Example 83, 2-Ethoxy-N-(4-{2-[4-(3-trifluoromethylphenyl)piperidin-1-yl]ethyl}cyclohexyl)acetamide], the melting point worked out at 84 °C.

The compound `COCC(=O)N[C@H]1CC[C@H](CCN2CCN(c3cccc(C(F)(F)F)c3)CC2)CC1.Cl` returned a melting point of 217 °C.

Turning to `N#CCCCC(=O)N[C@H]1CC[C@H](CCN2CCN(c3cccc4c3CCCC4)CC2)CC1` [Example 209, 4-Cyano-N-(4-{2-[4-(5,6,7,8-tetrahydronaphthalen-1-yl)piperazin-1-yl]ethyl}cyclohexyl)butanamide], the melting point stood at 148 °C.

`COCCCC(=O)N[C@H]1CC[C@H](CCN2CCN(c3ccc(Cl)cc3Cl)CC2)CC1` [Example 761, N-(4-{2-[4-(2,4-Dichlorophenyl)piperazin-1-yl]ethyl}cyclohexyl)-4-methoxybutanamide] registered a melting point of 171 °C.

`CC(=O)CN1CCC(CCN2CCN(c3ccc(C(F)(F)F)cc3F)CC2)CC1.Cl.Cl` returned a melting point of 278 to 279 °C.

Consider `Cl.N#CCC(=O)N[C@H]1CC[C@@H](CCN2CCN(c3ccccc3F)CC2)CC1`, for which the melting point came out at 153 °C.

Regarding `CC(=O)CN1CCC(CCN2CCN(c3cccc(C(C)(C)C)c3)CC2)CC1.Cl.Cl`, the melting point was 257 °C.

Compound `CCOCC(=O)N[C@H]1CC[C@H](CCN2CCN(c3ccc(Cl)c(Cl)c3)CC2)CC1` [Example 487, N-(4-{2-[4-(3,4-Dichlorophenyl)piperazin-1-yl]ethyl}cyclohexyl)-2-ethoxyacetamide] yielded a melting point of 112 °C.

The compound `COc1ccc(Cl)cc1N1CCN(CC[C@H]2CC[C@H](NC(=O)CCCC#N)CC2)CC1` [Example 415, N-(4-{2-[4-(5-Chloro-2-methoxyphenyl)piperazin-1-yl]ethyl}cyclohexyl)-4-cyanobutanamide] returned a melting point of 152 °C.

`COc1cc(N2CCN(CC[C@H]3CC[C@H](NC(=O)CC#N)CC3)CC2)cc(C(F)(F)F)c1` [Example 160, 2-Cyano-N-(4-{2-[4-(3-methoxy-5-trifluoromethylphenyl)piperazin-1-yl]ethyl}cyclohexyl)acetamide] showed a melting point of 183 to 184 °C.

`COc1cc(OC)cc(N2CCN(CC[C@H]3CC[C@H](NC(=O)CCCC#N)CC3)CC2)c1` [Example 392, 4-Cyano-N-(4-{2-[4-(3,5-dimethoxyphenyl)piperazin-1-yl]ethyl}cyclohexyl)butanamide] returned a melting point of 147 °C.

`N#CCCC(=O)N[C@H]1CC[C@H](CCN2CCN(c3ccccc3F)CC2)CC1` [Example 266, 3-Cyano-N-(4-{2-[4-(2-fluorophenyl)piperazin-1-yl]ethyl}cyclohexyl)propanamide] registered a melting point of 164 °C.

`O=C(C=C1CCC(CCN2CCN(c3ccccc3F)CC2)CC1)N1CCCC1` (stereo not drawn) [Example 301, 2-(4-{2-[4-(2-Fluorophenyl)-piperazin-1-yl]ethyl}cyclohexylidene)-1-pyrrolidin-1-ylethanone] came in with a melting point of 109 to 110 °C.

Compound `CCOCC(=O)N[C@H]1CC[C@H](CCN2CCN(c3cc(C(F)(F)F)ccc3F)CC2)CC1` [Example 514, 2-Ethoxy-N-(4-{2-[4-(2-fluoro-5-trifluoromethylphenyl)piperazin-1-yl]ethyl}cyclohexyl)acetamide] displayed a melting point of 128 °C.

In turn, `CC(=O)CN1CCC(CCN2CCN(c3cc(C(C)(C)C)nc(C(C)(C)C)n3)CC2)CC1.Cl.Cl` gave a melting point of 310 °C.

`CC(=O)CN1CCC(CCN2CC=C(c3cccc(C#N)c3)CC2)CC1` yielded a melting point of 94 °C.

Compound `N#CCCCC(=O)N[C@H]1CC[C@H](CCN2CCN(c3cc(C#N)cc(C(F)(F)F)c3)CC2)CC1` [Example 432, 4-Cyano-N-(4-{2-[4-(3-cyano-5-trifluoromethylphenyl)piperazin-1-yl]ethyl}cyclohexyl)butanamide] came in with a melting point of 174 °C.

As to `N#CCC(=O)N[C@H]1CC[C@H](CCN2CCN(c3ccc(Cl)c(Cl)c3)CC2)CC1` [Example 272, 2-Cyano-N-(4-{2-[4-(3,4-dichlorophenyl)piperazin-1-yl]ethyl}cyclohexyl)acetamide], the melting point came to 216 °C.

Consider `CC(=O)CN1CCC(CCN2CCN(c3ccc(F)c(Cl)c3)CC2)CC1` [Example 592, 1-(4-{2-[4-(3-Chloro-4-fluorophenyl)piperazin-1-yl]ethyl}piperidin-1-yl)propan-2-one], for which the melting point came out at 92 °C.

In the case of `N#CCC(=O)N[C@H]1CC[C@H](CCN2CCN(c3cc(Cl)cc(C(F)(F)F)c3)CC2)CC1` [Example 528, N-(4-{2-[4-(3-Chloro-5-trifluoromethylphenyl)piperazin-1-yl]ethyl}cyclohexyl)-2-cyanoacetamide], the melting point was determined as 172 °C.

In turn, `O=C(N[C@H]1CC[C@H](CCN2CCN(c3cccc(F)c3)CC2)CC1)C1=CCCC1` [Example 400, Cyclopent-1-enecarboxylic acid (4-{2-[4-(3-fluorophenyl)-piperazin-1-yl]ethyl}cyclohexyl) amide] displayed a melting point of 202 °C.

In the case of `Cc1cccc(N2CCN(CC[C@H]3CC[C@H](NC(=O)CC#N)CC3)CC2)c1C` [Example 219, 2-Cyano-N-(4-{2-[4-(2,3-dimethylphenyl)piperazin-1-yl]ethyl}cyclohexyl)acetamide], the melting point is 166 °C.

On to `CCCOCC(=O)N[C@H]1CC[C@H](CCN2CCN(c3cccc(C(F)(F)F)c3F)CC2)CC1` [Example 516, N-(4-{2-[4-(2-Fluoro-3-trifluoromethylphenyl)piperazin-1-yl]ethyl}cyclohexyl)-2-propoxyacetamide], for which the melting point worked out at 102 °C.

In the case of `N#CCCCC(=O)N[C@H]1CC[C@H](CCN2CCN(c3ccc(Cl)c(Cl)c3)CC2)CC1` [Example 368, 4-Cyano-N-(4-{2-[4-(3,4-dichlorophenyl)piperazin-1-yl]ethyl}cyclohexyl)butanamide], the melting point was 151 °C.

`COCCCC(=O)N[C@H]1CC[C@H](CCN2CCN(c3cccc(C(F)(F)F)c3C)CC2)CC1` [Example 735, 4-Methoxy-N-(4-{2-[4-(2-methyl-3-trifluoromethylphenyl)piperazin-1-yl]ethyl}cyclohexyl)butanamide] had a melting point of 173 °C.

For `Cc1ccc(N2CCN(CC[C@H]3CC[C@H](NC(=O)C4=CCCC4)CC3)CC2)c(F)c1` [Example 518, Cyclopent-1-enecarboxylic acid (4-{2-[4-(2-fluoro-4-methylphenyl)piperazin-1-yl]ethyl}cyclohexyl) amide], the melting point stood at 202 °C.

On to `CC(=O)CN1CCC(CCN2CCN(c3cccc4c3CCCC4)CC2)CC1.Cl.Cl`, for which the melting point stood at 320 °C.
